Test: Solubility of the complex in water and alcohols
Format: physicochemical
Conditions: methanol, ethanol, water/alcohol mixture

Solubility in methanol, ethanol and water/alcohol mixture, in words | SMILES
excellent solubility | CC(C)c1cccc(C(C)C)c1N1CCN(c2c(C(C)C)cccc2C(C)C)[CH]1[Ru]([Cl])([Cl])=[CH]c1ccccc1OC1CC[N+](C)(C)CC1 [Complex 48]

Same assay, conditions: neat / pure water

Solubility in water, in words | SMILES
Insoluble | CC(C)c1cccc(C(C)C)c1N1CCN(c2c(C(C)C)cccc2C(C)C)[CH]1[Ru]([Cl])([Cl])=[CH]c1ccccc1OC1CC[N+](C)(C)CC1 [Complex 48]

Same assay, conditions: water

Water solubility [µg/mL] | SMILES
65000 | CC(C)c1cc(C[N+]2(C)CCOCC2)cc(C(C)C)c1N1CCN(c2c(C(C)C)cc(C[N+]3(C)CCOCC3)cc2C(C)C)[CH]1[Ru]([Cl])([Cl])=[CH]c1ccccc1OC1CC[N+](C)(C)CC1 [Complex 55]
2000 | CC(C)Oc1ccccc1[CH]=[Ru]([Cl])([Cl])[CH]1N(c2c(C(C)C)cc(C[N+]3(C)CCOCC3)cc2C(C)C)CCN1c1c(C(C)C)cc(C[N+]2(C)CCOCC2)cc1C(C)C [Complex 54]
35000 | Cc1cc(C)c(N2CC(C[N+](C)(C)C)N(c3c(C)cc(C)cc3C)[CH]2[Ru]([Cl])([Cl])=[CH]c2ccccc2OC2CC[N+](C)(C)CC2)c(C)c1 (stereo not drawn) [Complex 51]
3000 | CC[N+]1(C)CCN(CC2CN(c3c(C)cc(C)cc3C)[CH]([Ru]([Cl])([Cl])=[CH]c3ccccc3OC(C)C)N2c2c(C)cc(C)cc2C)CC1 (stereo not drawn) [Complex 52]
3000 | Cc1cc(C)c(N2CC(C[N+](C)(C)C)N(c3c(C)cc(C)cc3C)[CH]2[Ru]([Cl])([Cl])=[CH]c2cc([N+](=O)[O-])ccc2OC(C)C)c(C)c1 (stereo not drawn) [Complex 50]
1000 | Cc1cc(C)c(N2CCN(c3c(C)cc(C)cc3C)[CH]2[Ru]([Cl])([Cl])=[CH]c2cc([N+](C)(C)C)ccc2OC(C)C)c(C)c1 [Complex 56]
35000 | CC[N+]1(C)CCN(CC2CN(c3c(C)cc(C)cc3C)[CH]([Ru]([Cl])([Cl])=[CH]c3ccccc3OC3CC[N+](C)(C)CC3)N2c2c(C)cc(C)cc2C)CC1 (stereo not drawn) [Complex 53]
